Data as given in publication PMC6600574 (Molecules, 2019).

Experiments:
[1] = DPPH radical scavenging assay; format: biochemical; settings: DPPH in ethanol, 30 min
Method: Ascorbic acid was serially diluted to a concentration range of 0.78–100 µg/mL. Ethanol (10%) was used as a blank. Ninety microliters of a […] DPPH (2,2-diphenyl-1-picrylhydrazyl) in ethanol were added to each well. The plates were incubated for 30 min and covered in a layer of foil. Color controls (negative controls) were prepared in the exact same manner as above, but distilled water was added to each well instead of DPPH. The absorbances were measured at a wavelength of 515 nm using a BIO-TEK Power-Wave XS multiplate reader (BIO-TEK Instruments, Winooski, VT, USA). From the absorbances an IC50 value was determined.

[2] = Nitric oxide scavenging assay (nitroprusside, Griess reagent); format: biochemical; settings: 10 mM nitroprusside, 90 min, read-out: NO IC50
Method: Ethanol (10%) was used as a blank. Nitroprusside (50 μL) at a concentration of 10 mM was added to all the wells. The plates were incubated for 90 min at room temperature. After incubation, Griess reagent (100 μL) was added to all the wells, except for the color controls (negative controls) where instead distilled water was added. The absorbances were read at a wavelength of 546 nm using a BIO-TEK Power-Wave XS multiplate reader. From the absorbances an IC50 value was determined.

With O=C1O[C@H]([C@@H](O)CO)C(O)=C1O [Ascorbic acid, reference compound] the IC50 [1] was 43.7 ± 1.12 µM and the IC50 [2] was 144 ± 3.3 µM.
